# Assay results: patent US9784730B2, “Nanoparticle for targeting brain tumors and delivery of O6-benzylguanine” (University of Washington through its Center for …, priority 2013, dated 2017)
# Tests used:
# [1] = target: T1, O6-methylguanine-DNA methyltransferase (MGMT) (Homo sapiens, UniProt P16455); assay: MGMT activity assay in treated SF767 cells; type: cell-based; conditions: 20 μM free BG, 2 hr
# T1 construct: MGMT activity determined in cleared supernatants of whole cell homogenates; endogenous in cells; host or cells: SF767 human GBM cell line (ATCC)
# T1 sequence (P16455 1-207): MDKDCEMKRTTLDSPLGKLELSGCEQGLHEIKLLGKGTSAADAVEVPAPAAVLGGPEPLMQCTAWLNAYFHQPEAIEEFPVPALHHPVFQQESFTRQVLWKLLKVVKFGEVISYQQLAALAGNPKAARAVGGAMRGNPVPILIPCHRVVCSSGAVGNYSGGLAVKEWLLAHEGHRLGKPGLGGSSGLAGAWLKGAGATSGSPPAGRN
# Experimental: In this experiment, MGMT activity was assayed in untreated cells, cells incubated with 20 μM free BG for 2 hr, and cells treated for either 2 hr or 24 hr with NPCP-BG equivalent to 5 μM, 10 μM or 20 μM BG. […] All treatment conditions were normalized as a percent MGMT activity of untreated SF767 cells.
# The MGMT activities of protein extracts of human GBM SF767 cells were measured in a standard biochemical assay that quantifies the transfer of radioactivity from a DNA substrate containing [methyl^3H]O^6-methylguanine (specific activity, 80 Ci/mmol) to protein, as detailed previously (Silber et al., Cancer Res 1998, 58, 1068-1073). 2×10^6 SF767 cells were plated in 100 mm treated dishes and incubated with 20 μM free BG for and 2 hr or 24 hr with NPCP-BG equivalent to 5 μM, 10 μM or 20 μM BG in fully supplemented media. After incubation, cells were washed with PBS and collected and protein extracts were prepared. The protein extract supernatant was prepared by dissolution of washed SF767 pellets of known cell number with non-ionic detergents in the presence of 600 mM NaCl. Aliquots of crude homogenate were saved for DNA determination by the diphenylamine method that measures deoxyribose following degradation of DNA with heat and acid. Crude homogenate was cleared by centrifugation at 10,000×g for 30 min. […]
# SF767 cells = assay: Clonogenic survival assay with TMZ; type: cell-based, human
# Experimental: SF767 cells are noted for their pronounced resistance to TMZ (LD50 about 600 μM) mediated in large part by MGMT. The effect of suppression of MGMT activity by NPCP-BG on TMZ-mediated reduction in clonogenic survival of SF767 is illustrated in FIG. 6. Cells were exposed to NPCP-BG equivalent to 20 μM free drug for 2 hr followed by incubation with TMZ for 24 hr in the presence of inhibitor. Controls were treated either with 20 μM free BG or with an equivalent volume of DMSO.
# Determination of proliferative survival of SF767 by clonogenic assay was performed as described previously (Blank et al., DNA Repair 2004, 3, 629-638). Briefly, 6-well plates inoculated with 2 mL of supplemented medium containing 1000 to 2000 cells were incubated overnight at 37° C. in 95%/5% air/CO2 to allow reattachment and resumption of proliferation. Cells were then incubated for 2 hrs with inhibitor-conjugated NP equivalent to 20 μM free BG prior to exposure to TMZ. Incubation was continued for 22 hr before changing cells to fresh, drug-free medium to allow formation of colonies ≧50 cells. […] Cytotoxicity was quantitated by linear regression analysis of plots of log surviving fraction v. […] Survival was determined in 4 separate experiments in which every dose was assayed in duplicate (i.e., 8 determinations per TMZ dose) in order to achieve statistical significance.
# [2] = rodent models; cited from earlier work
# [3] = clinical trials, BG included in TMZ regimens; cited from earlier work
# brain tumors = conditions: cited from earlier work
compound,measurement,setting,value
"Nc1nc(OCc2ccccc2)c2nc[nH]c2n1 [BG, O^6-benzylguanine]",Fold reduction of MGMT activity,[1],about 28 fold
same,MGMT activity as percent of untreated activity,[1],about 3.6%
same,TMZ LD50 in presence of MGMT inhibitor,SF767 cells; inhibitor equivalent to 20 μM BG for 2 hr before TMZ for 24 hr,about 15 μM
same,Half-life reported in literature,[2],1.2 h
same,Reduction of maximum tolerated dose (MTD) of TMZ,[3],50%
"Cn1nnc2c(C(N)=O)ncn2c1=O [TMZ, temozolomide]",TMZ LD50 (dose reducing clonogenic survival to 50%),SF767 cells; TMZ alone,about 600 μM
chlorotoxin [CTX],Brain tumors targeted of those examined,brain tumors,74 out of 79
